Results: PubChem BioAssay AID248 (DTP/NCI, 2004)
Several values for one entry are separate records, joined by “and”; a condition that tells them apart may be missing. Identical values can stand only once. Inconclusive results and toxic doses are left out.

Test system: L1210 leukemia ip in BDF1 mice, survival T/C
Experiment: NCI In Vivo Anticancer Drug Screen. Data for tumor model L1210 Leukemia (intraperitoneal) in B6D2F1 (BDF1) mice
Settings: endpoint: mean survival time, higher = longer survival
Procedure, shortened: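 Mice bearing the transplanted tumor received compound or vehicle. Survival of the treated group was divided by that of the vehicle-treated control group to give the ratio.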

[1] = dose: 25.0 mg/kg/injection, schedule: Q04DX003 (ip), vehicle: Klucel (hydroxypropylcellulose) (HPC)
[2] = dose: 100.0 mg/kg/injection, schedule: Q01DX001 (ip), vehicle: carboxymethylcellulose (CMC)
[3] = dose: 200.0 mg/kg/injection, schedule: Q04DX003 (ip), vehicle: Klucel (hydroxypropylcellulose) (HPC)
[4] = dose: 100.0 mg/kg/injection, schedule: Q04DX003 (ip), vehicle: saline with Tween-80
[5] = dose: 200.0 mg/kg/injection, schedule: Q04DX003 (ip), vehicle: saline with Tween-80
[6] = dose: 400.0 mg/kg/injection, schedule: Q04DX003 (ip), vehicle: saline with Tween-80
[7] = dose: 75.0 mg/kg/injection, schedule: Q01DX001 (ip), vehicle: saline
[8] = dose: 150.0 mg/kg/injection, schedule: Q01DX001 (ip), vehicle: saline
[9] = dose: 300.0 mg/kg/injection, schedule: Q01DX001 (ip), vehicle: saline
[10] = dose: 100.0 mg/kg/injection, schedule: Q01DX009 (ip), vehicle: Klucel (hydroxypropylcellulose) (HPC)
[11] = dose: 100.0 mg/kg/injection, schedule: Q04DX003 (ip), vehicle: Klucel (hydroxypropylcellulose) (HPC)
[12] = dose: 200.0 mg/kg/injection, schedule: Q01DX009 (ip), vehicle: Klucel (hydroxypropylcellulose) (HPC)
[13] = dose: 400.0 mg/kg/injection, schedule: Q01DX009 (ip), vehicle: Klucel (hydroxypropylcellulose) (HPC)
[14] = dose: 400.0 mg/kg/injection, schedule: Q04DX003 (ip), vehicle: Klucel (hydroxypropylcellulose) (HPC)
[15] = dose: 50.0 mg/kg/injection, schedule: Q01DX009 (ip), vehicle: saline with Tween-80
[16] = dose: 100.0 mg/kg/injection, schedule: Q01DX009 (ip), vehicle: saline with Tween-80
[17] = dose: 100.0 mg/kg/injection, schedule: Q04DX002 (ip), vehicle: saline with Tween-80
[18] = dose: 200.0 mg/kg/injection, schedule: Q04DX002 (ip), vehicle: saline with Tween-80
[19] = dose: 400.0 mg/kg/injection, schedule: Q04DX002 (ip), vehicle: saline with Tween-80
[20] = dose: 200.0 mg/kg/injection, schedule: Q01DX009 (ip), vehicle: saline with Tween-80

With CCc1ccc(NC(=O)N(CCCl)N=O)cc1 as the compound, how does the T/C (dose: 10.0 mg/kg/injection, schedule: Q01DX009 (ip), vehicle: Klucel (hydroxypropylcellulose) (HPC)) read?
Its T/C is 168 % of control and 175 % of control.

And the T/C (dose: 20.0 mg/kg/injection, schedule: Q01DX009 (ip), vehicle: Klucel (hydroxypropylcellulose) (HPC))?
The T/C was 157 % of control and 172 % of control.

What about the T/C [1] of the same compound?
The T/C was 124 % of control.

And the T/C (dose: 40.0 mg/kg/injection, schedule: Q01DX009 (ip), vehicle: Klucel (hydroxypropylcellulose) (HPC))?
Its T/C is 88 % of control.

What about the T/C (dose: 50.0 mg/kg/injection, schedule: Q04DX003 (ip), vehicle: Klucel (hydroxypropylcellulose) (HPC)) of the same compound?
The T/C was 150 % of control and 159 % of control.

And the T/C [2]?
Its T/C is 101 % of control.

What about the T/C [3] of the same compound?
Its T/C is 105 % of control.

For ClCC1(CCl)COC(c2ccccc2)OC1, which T/C [4] is on record?
The T/C was 95 % of control.

What about the T/C [5] of the same compound?
The T/C was 93 % of control.

And the T/C [6]?
The T/C was 92 % of control.

Which T/C (dose: 12.5 mg/kg/injection, schedule: Q04DX003 (ip), vehicle: Klucel (hydroxypropylcellulose) (HPC)) does the source give for CCCCSCCOC(=O)C1C2CCC(O2)C1C(=O)O (stereo not drawn) here?
The T/C was 95 % of control.

What about the T/C [1] of the same compound?
The T/C was 96 % of control.

With C1=CC2CC1C1CC21 (stereo not drawn) as the compound, how does the T/C [7] read?
Its T/C is 100 % of control.

What about the T/C [8] of the same compound?
Its T/C is 96 % of control.

And the T/C [9]?
The T/C was 96 % of control.

How did the T/C (dose: 6.25 mg/kg/injection, schedule: Q01DX009 (ip), vehicle: saline with Tween-80) turn out when COc1ccc(S(=O)(=O)N/N=C/C(=O)O)cc1 was run?
Its T/C is 109 % of control.

And the T/C (dose: 12.5 mg/kg/injection, schedule: Q01DX009 (ip), vehicle: saline with Tween-80)?
Its T/C is 117 % of control.

With O=C(Oc1ccccc1Cl)c1ccc(Cl)cc1Cl as the compound, how does the T/C [10] read?
Its T/C is 91 % of control.

What about the T/C [11] of the same compound?
Its T/C is 93 % of control.

And the T/C [12]?
Its T/C is 90 % of control.

What about the T/C [3] of the same compound?
Its T/C is 96 % of control.

What about the T/C [13] of the same compound?
The T/C was 91 % of control.

What about the T/C [14] of the same compound?
Its T/C is 98 % of control.

How did the T/C (dose: 50.0 mg/kg/injection, schedule: Q01DX001 (ip), vehicle: saline with Tween-80) turn out when O=C1OC2CCCC1C2 (stereo not drawn) was run?
The T/C was 104 % of control.

And the T/C (dose: 100.0 mg/kg/injection, schedule: Q01DX001 (ip), vehicle: saline with Tween-80)?
The T/C was 100 % of control.

What about the T/C (dose: 200.0 mg/kg/injection, schedule: Q01DX001 (ip), vehicle: saline with Tween-80) of the same compound?
The T/C was 100 % of control.

Which results are given for CCCN(/C=C/C=C/C=[N+](CCC)CCC)CCC?
T/C (dose: 0.03 mg/kg/injection, schedule: Q04DX003 (ip), vehicle: saline): 100 % of control; T/C (dose: 0.05 mg/kg/injection, schedule: Q04DX003 (ip), vehicle: saline): 109 % of control; T/C (dose: 0.1 mg/kg/injection, schedule: Q04DX003 (ip), vehicle: saline): 98 % of control

Which results are given for O=C1C(O)=C(c2ccccc2C(=O)O)C(=O)C(O)=C1c1ccccc1C(=O)O?
T/C (dose: 25.0 mg/kg/injection, schedule: Q01DX009 (ip), vehicle: saline with Tween-80): 101 % of control; T/C [15]: 101 % of control; T/C (dose: 50.0 mg/kg/injection, schedule: Q04DX002 (ip), vehicle: saline with Tween-80): 102 % of control; T/C [16]: 96 % of control; T/C [17]: 98 % of control and 109 % of control; T/C [18]: 102 % of control and 113 % of control; T/C [19]: 98 % of control and 104 % of control

Which results are given for C/C=C/C(=O)OCC (tested in a mixture with another compound)?
T/C [15]: 97 % of control; T/C [16]: 93 % of control; T/C [20]: 93 % of control

What does the source list for O=C(CBr)NC(Cc1ccccc1)C(=O)O (stereo not drawn)?
T/C [7]: 94 % of control and 90 % of control; T/C [8]: 103 % of control; T/C [9]: 90 % of control

CCOC(CN(Cc1ccc(OCc2ccccc2)c(OC)c1)S(=O)(=O)c1ccc(C)cc1)OCC was tested. Which T/C (dose: 25.0 mg/kg/injection, schedule: Q01DX009 (ip), vehicle: water) did it give?
Its T/C is 102 % of control.

What about the T/C (dose: 50.0 mg/kg/injection, schedule: Q01DX009 (ip), vehicle: water) of the same compound?
The T/C was 91 % of control.

What about the T/C (dose: 100.0 mg/kg/injection, schedule: Q01DX009 (ip), vehicle: water) of the same compound?
Its T/C is 105 % of control.

What about the T/C (dose: 200.0 mg/kg/injection, schedule: Q01DX009 (ip), vehicle: water) of the same compound?
The T/C was 102 % of control.

And the T/C (dose: 400.0 mg/kg/injection, schedule: Q01DX009 (ip), vehicle: water)?
Its T/C is 100 % of control.

O=C(Nc1cccc2c1N(C(=O)c1ccco1)CCC2)c1ccco1 was tested. Which T/C [16] did it give?
The T/C was 98 % of control.

And the T/C [4]?
The T/C was 94 % of control.

And the T/C [20]?
The T/C was 101 % of control.

What about the T/C [5] of the same compound?
The T/C was 96 % of control.

And the T/C (dose: 400.0 mg/kg/injection, schedule: Q01DX009 (ip), vehicle: saline with Tween-80)?
The T/C was 95 % of control.

What about the T/C [6] of the same compound?
Its T/C is 96 % of control.

O=C1c2ccccc2C(=O)N1CNc1ccccc1S was tested. Which T/C [10] did it give?
Its T/C is 100 % of control.

What about the T/C [12] of the same compound?
Its T/C is 104 % of control.

What about the T/C [13] of the same compound?
Its T/C is 109 % of control.

Which results are given for O=C(O)CCC(=O)NCCNC(=O)CC(=O)O?
T/C (dose: 100.0 mg/kg/injection, schedule: Q01DX001 (ip), vehicle: saline): 100 % of control; T/C (dose: 200.0 mg/kg/injection, schedule: Q01DX001 (ip), vehicle: saline): 105 % of control; T/C (dose: 400.0 mg/kg/injection, schedule: Q01DX001 (ip), vehicle: saline): 100 % of control

Which results are given for O=C(Nc1cccc(Cl)c1)Nc1ccccc1C(F)(F)F?
T/C (dose: 50.0 mg/kg/injection, schedule: Q01DX001 (ip), vehicle: carboxymethylcellulose (CMC)): 104 % of control; T/C [2]: 106 % of control; T/C (dose: 200.0 mg/kg/injection, schedule: Q01DX001 (ip), vehicle: carboxymethylcellulose (CMC)): 106 % of control; T/C (dose: 400.0 mg/kg/injection, schedule: Q01DX001 (ip), vehicle: carboxymethylcellulose (CMC)): 101 % of control

CCOc1ccc(C2NC(=O)c3ccccc3N2)cc1 (stereo not drawn) was tested. Which T/C [10] did it give?
The T/C was 104 % of control.

And the T/C [11]?
Its T/C is 91 % of control.

What about the T/C [12] of the same compound?
The T/C was 97 % of control.

And the T/C [3]?
The T/C was 98 % of control.

And the T/C [13]?
Its T/C is 97 % of control.

What about the T/C [14] of the same compound?
The T/C was 98 % of control.

O=c1[nH]nc(-c2ccc(Cl)cc2Cl)s1 was tested. Which T/C [11] did it give?
Its T/C is 95 % of control.

And the T/C [3]?
Its T/C is 101 % of control.

What about the T/C [14] of the same compound?
The T/C was 112 % of control.

Which results are given for O=c1c(Cl)c(C(Cl)(Cl)Cl)c2ccccc2n1O?
T/C [11]: 101 % of control; T/C [3]: 86 % of control

Which T/C [15] does the source give for CCOC(=O)C1CCCCC1O (stereo not drawn) here?
The T/C was 103 % of control.

And the T/C [16]?
Its T/C is 95 % of control.

What about the T/C [17] of the same compound?
Its T/C is 97 % of control.

What about the T/C [20] of the same compound?
Its T/C is 103 % of control.

And the T/C [18]?
Its T/C is 97 % of control.

What about the T/C [19] of the same compound?
The T/C was 104 % of control.

For CCCCCCCCCCCCCCCCC(=O)O.[Pb], which T/C (dose: 75.0 mg/kg/injection, schedule: Q01DX001 (ip), vehicle: other) is on record?
The T/C was 94 % of control.

And the T/C (dose: 150.0 mg/kg/injection, schedule: Q01DX001 (ip), vehicle: other)?
The T/C was 92 % of control.

What about the T/C (dose: 300.0 mg/kg/injection, schedule: Q01DX001 (ip), vehicle: other) of the same compound?
The T/C was 92 % of control.
